According to US6413990B1, “Arylsulphonamide-substituted benzimidazoles having tryptase-inhibiting activity” (Boehringer Ingelheim Pharma KG, priority 1999, dated 2002):

What was measured:
rh beta tryptase = biological target: T1, rh beta tryptase (Homo sapiens, UniProt Q15661); assay: tryptase inhibition test (cleavage of N-p-tosyl-Gly-Pro-Lys-para-nitroaniline, p-nitroaniline measured at 405 nm); assay type: biochemical; conditions: Tris HCl buffer pH 7.4 with calcium and heparin, 37° C., substrate 0.6 mM, 5 minutes pre-incubation, 5 minutes incubation
T1 construct: purchased Promega
T1 sequence (Q15661 31-275): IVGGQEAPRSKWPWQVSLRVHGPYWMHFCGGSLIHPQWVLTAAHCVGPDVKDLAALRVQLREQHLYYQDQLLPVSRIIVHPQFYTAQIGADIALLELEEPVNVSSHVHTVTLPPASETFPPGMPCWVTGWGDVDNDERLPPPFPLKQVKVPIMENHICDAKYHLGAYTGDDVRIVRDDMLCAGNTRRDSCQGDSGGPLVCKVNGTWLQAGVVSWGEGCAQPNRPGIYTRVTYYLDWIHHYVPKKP
Method: The compounds according to the invention are characterised by their tryptase-inhibiting activity. This ability to inhibit tryptase was investigated using the test described below.
The measurement is carried out in Tris HCl buffer (100 mM), which additionally contains calcium (5 mM) and heparin ([…]), at pH 7.4. The standard used is rh beta tryptase which may be obtained commercially from Promega, for example. The substrate used is N-p-tosyl-Gly-Pro-Lys-para-nitroaniline in a concentration of 0.6 mM. The substrate is digested with tryptase to form p-nitroaniline which can be measured at 405 nm. Usually, an incubation period of 5 minutes and an incubation temperature of 37° C. are chosen. The enzyme activity used is 0.91 U/ml. The measurements are carried out in an Autoanalyser (Cobas Bio) made by Hofmann LaRoche. The potential inhibitory substances are used in concentrations of 10 μM in the screening, the inhibition of the tryptase being given in percent. The IC50 is determined at over 70% inhibition (concentration at which 50% of the enzyme activity is inhibited). After 5 minutes pre-incubation of the potential inhibitory substances, the substrate is added to start the reaction, the formation of p-nitroaniline being taken as a measurement of the enzyme activity after 5 minutes, after testing the linearity.
The data obtained after carrying out the tests described above (IC50 values) can be found in Table 2.

SMILES | melting point [°C] | IC50 (rh beta tryptase) [nM]
CCN(CC)CCN(c1ccc2c(c1)nc(CCc1ccc(C(N)=NO)cc1)n2C)S(=O)(=O)c1cccc(Br)c1 [Example 36, N-{2-[2-(4-amino-hydroximinomethyl)phenyl-ethyl]-1-methyl-benzimidazol-5-yl}-N-diethylaminoethyl-(3-bromo-benzenesulphonamide)] | 156 | –
CCN(CC)CCN(c1ccc2c(c1)nc(CCc1ccc(C(=N)N)cc1)n2C)S(=O)(=O)c1ccc(Cl)cc1 [Example 10, N-{2-[2-(4-amidinophenyl)-ethyl]-1-methyl-benzimidazol-5-yl}-N-diethylaminoethyl-(4-chloro-benzenesulphonamide)] | 88 to 90 | 49
